Measurements reported in ChEMBL document CHEMBL1153625, “Structure-based virtual screening approach to identify novel classes of Cdc25B phosphatase inhibitors” (Bioorg Med Chem Lett, 2009).

Key:
[1] = target: T1, M-phase inducer phosphatase 2 (Homo sapiens, UniProt P30305); experiment: Inhibition of GST-fused Cdc25B
T1 sequence (P30305 whole entry): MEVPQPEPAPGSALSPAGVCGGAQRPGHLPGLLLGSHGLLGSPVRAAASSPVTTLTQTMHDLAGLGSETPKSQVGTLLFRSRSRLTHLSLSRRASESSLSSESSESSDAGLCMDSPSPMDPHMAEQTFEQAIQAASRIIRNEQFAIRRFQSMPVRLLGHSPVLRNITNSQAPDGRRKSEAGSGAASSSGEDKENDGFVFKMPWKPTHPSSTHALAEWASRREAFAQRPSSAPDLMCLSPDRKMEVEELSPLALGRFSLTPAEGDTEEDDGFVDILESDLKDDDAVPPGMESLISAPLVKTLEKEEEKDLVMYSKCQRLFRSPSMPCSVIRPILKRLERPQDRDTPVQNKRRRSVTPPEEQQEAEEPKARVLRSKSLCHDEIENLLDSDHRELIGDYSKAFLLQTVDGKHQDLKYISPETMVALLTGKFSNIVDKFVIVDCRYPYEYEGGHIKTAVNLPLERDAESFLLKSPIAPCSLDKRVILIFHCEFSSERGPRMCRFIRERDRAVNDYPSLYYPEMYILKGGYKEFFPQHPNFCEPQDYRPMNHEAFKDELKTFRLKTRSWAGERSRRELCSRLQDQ

[2] = target: T2, M-phase inducer phosphatase 1 (Homo sapiens, UniProt P30304); experiment: Inhibition of Cdc25A
T2 sequence (P30304 whole entry): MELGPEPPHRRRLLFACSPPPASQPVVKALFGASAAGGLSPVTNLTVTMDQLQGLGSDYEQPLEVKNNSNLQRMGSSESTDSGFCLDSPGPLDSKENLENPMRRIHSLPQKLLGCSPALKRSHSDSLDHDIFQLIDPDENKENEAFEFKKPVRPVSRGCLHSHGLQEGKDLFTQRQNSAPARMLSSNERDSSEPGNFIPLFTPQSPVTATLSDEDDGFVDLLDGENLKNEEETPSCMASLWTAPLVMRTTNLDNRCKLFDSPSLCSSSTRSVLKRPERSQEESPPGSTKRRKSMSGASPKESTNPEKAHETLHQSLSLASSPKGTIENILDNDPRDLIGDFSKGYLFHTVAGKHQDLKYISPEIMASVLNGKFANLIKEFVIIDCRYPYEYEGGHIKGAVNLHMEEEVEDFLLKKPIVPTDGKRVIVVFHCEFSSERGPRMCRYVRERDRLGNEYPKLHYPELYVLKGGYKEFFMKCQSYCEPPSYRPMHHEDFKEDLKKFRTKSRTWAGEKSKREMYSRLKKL

[3] = target: T3, Tyrosine-protein phosphatase 1 (Saccharomyces cerevisiae S288c, UniProt P25044); experiment: Inhibition of YPTP1
T3 sequence (P25044 whole entry): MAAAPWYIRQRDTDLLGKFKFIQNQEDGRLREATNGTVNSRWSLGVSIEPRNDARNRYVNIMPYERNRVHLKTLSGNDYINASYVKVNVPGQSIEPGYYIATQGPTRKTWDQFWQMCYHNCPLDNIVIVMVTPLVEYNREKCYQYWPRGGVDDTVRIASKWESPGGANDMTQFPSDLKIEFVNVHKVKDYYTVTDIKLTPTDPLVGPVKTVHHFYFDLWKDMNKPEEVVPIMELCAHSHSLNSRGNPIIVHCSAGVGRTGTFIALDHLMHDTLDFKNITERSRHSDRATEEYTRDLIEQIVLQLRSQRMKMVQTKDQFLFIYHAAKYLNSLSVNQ

[4] = Inhibition of YOP; set-up: species or system Yersinia
[5] = target: T4, Tyrosine-protein phosphatase non-receptor type 1 (Homo sapiens, UniProt P18031); experiment: Inhibition of PTP1B
T4 sequence (P18031 whole entry): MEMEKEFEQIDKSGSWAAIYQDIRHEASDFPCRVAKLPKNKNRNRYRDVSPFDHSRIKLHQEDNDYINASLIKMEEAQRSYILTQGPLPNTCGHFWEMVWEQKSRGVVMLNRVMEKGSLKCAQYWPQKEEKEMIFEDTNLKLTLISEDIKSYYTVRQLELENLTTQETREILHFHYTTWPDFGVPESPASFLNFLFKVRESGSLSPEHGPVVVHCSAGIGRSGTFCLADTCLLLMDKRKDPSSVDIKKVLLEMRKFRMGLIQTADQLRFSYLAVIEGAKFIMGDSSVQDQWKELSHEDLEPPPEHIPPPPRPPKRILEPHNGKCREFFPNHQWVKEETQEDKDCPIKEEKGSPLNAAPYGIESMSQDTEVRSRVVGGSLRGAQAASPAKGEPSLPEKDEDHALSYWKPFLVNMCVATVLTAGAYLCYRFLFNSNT

Structure (SMILES)	IC50 [1] [µM]	IC50 [2] [µM]	IC50 [3] [µM]	IC50 [4] [µM]	IC50 [5] [µM]
Nc1cccc(Nc2nc3ccccc3nc2NS(=O)(=O)c2ccc(Cl)cc2)c1	11.1	2.3	–	–	–
N#Cc1c(NS(=O)(=O)c2ccccc2)n(Cc2ccccc2)c2nc3ccccc3nc12	0.2	2.9	> 100	> 100	> 100
N#Cc1c(N)n(Cc2ccc3c(c2)OCO3)c2nc3ccccc3nc12	9.1	5.5	–	–	–
O=S(=O)(Nc1cc2nc3ccccc3nc2n1Cc1ccccc1)c1ccccc1	0.21	2.1	> 100	> 100	> 100
O=C(Nc1ccc(Cl)c(Cl)c1)Nc1ncc2c(n1)CC(c1ccco1)CC2=O (configuration not stated)	13.7	17.8	–	–	–
O=C1C(Cl)=C(NCCc2ccc(F)cc2)C(=O)c2ccccc21	9.5	3.9	–	–	–
O=C(O)c1ccc2c(c1)C(=O)/C(=C/c1ccccc1)C2=O	8.6	13.3	–	–	–
O=C1C(Cl)=C(NC(Cc2ccccc2)C(=O)O)C(=O)c2ccccc21 (configuration not stated)	3.8	3.5	–	–	–
